These results are taken from patent US11241475B2, “Preventive and/or therapeutic agent for osteogenesis imperfecta and other diseases” (Pharma Foods International Co., Ltd., priority 2016, dated 2022).

The test system of series [1] is insulin-like growth factor (IGF-1). The experiment in a line: IGF-1 production: peptide No. 2 versus reverse sequence and constituent amino acids (Example 9). The following applies: rats, single oral dose 10 mg/kg, 45 minutes, groups No. 2, R-No. 2, AA, control. It counts as in vivo. Here is the method:
The synthetic peptide No. 2, a peptide consisting of a reverse sequence of the peptide No. 2 (SEQ ID NO: 3; herein also called R-No. 2), constituent amino acids of the synthetic peptide No. 2 (herein also called AA), or water for injection (control) was orally administered as a single dose to male Wistar rats at the age of four weeks by using a gastric tube (n=6 in each group). The dosage of the synthetic peptide, the reverse sequence peptide and the constituent amino acids was 10 mg/kg. At 45 minutes after administration, the rats were euthanized under anesthesia, and the liver was harvested. The concentration of IGF-1 in the serum and liver was measured by ELISA (Mouse/Rat IGF-I Quantikine ELISA Kit (MG100), R&D Systems, Inc.). For the serum IGF-1 concentration, the difference (Δ value) before and after administration was also determined.

The subject of series [2] is mouse osteoblast-like cell line MC3T3-E1 Subclone-4. The series can be described thus: Proliferation-promoting activity on osteoblastic precursor cells (BrdU uptake). The format is cell-based. Here is the method: The mouse osteoblast-like cell line MC3T3-E1 Subclone-4 (ATCC No. CRL-2593) was cultured in α-MEM medium supplemented with 10% FBS at 37° C. in 5% CO2-95% air to subconfluence. The cells were collected by trypsinization. The collected cells were suspended at 5×10^4 cells/mL in fresh α-MEM medium with the same supplement. One hundred microliters of the cell suspension was seeded in each well of a 96-well plate, and precultured at 37° C. in 5% CO2-95% air. On the next day, the medium was replaced with α-MEM medium containing the sample dissolved therein with a supplement of 0.1% FBS. The cells were further cultured for 24 hours. The proliferative activity of the osteoblastic precursor cells was assessed by measuring the amount of BrdU uptake. The proliferation-promoting activity of the sample on the osteoblastic precursor cells was expressed as a value relative to the proliferation level of the cells in the absence of the sample, which was taken as 100.

The test system of series [3] is mouse chondrogenic cell line ATDC5. The experiment in a line: Proliferation-promoting activity on chondrogenic cells (BrdU uptake). It counts as cell-based. The following applies: ATDC5, 24 hours, relative to absence of sample = 100, FIGS. 5 and 6. Here is the method:
The mouse chondrogenic cell line ATDC5 (RCB0565) was cultured in DMEM/F-12 medium supplemented with 5% FBS, 3×10-8 M sodium selenite and 5 μg/mL human transferrin at 37° C. in 5% CO2-95% air to subconfluence. The cells were collected by trypsinization. The collected cells were suspended at 5×10^4 cells/mL in fresh DMEM/F-12 medium with the same supplements. One hundred microliters of the cell suspension was seeded in each well of a 96-well plate, and precultured at 37° C. in 5% CO2-95% air. On the next day, the medium was replaced with DMEM/F-12 medium containing the sample dissolved therein with a supplement of 3×10^−8 M sodium selenite and 5 μg/mL human transferrin. The cells were further cultured for 24 hours. The proliferative activity of the chondrogenic cells was assessed by measuring the amount of BrdU uptake. The proliferation-promoting activity of the sample on the chondrogenic cells was expressed as a value relative to the proliferation level of the cells in the absence of the sample, which was taken as 100.

The test system of series [4] is insulin-like growth factor (IGF-1). The experiment in a line: Promoting effect on IGF-1 production after single oral dose (Example 8). The format is in vivo. The conditions noted are these: rats. Here is the method: The synthetic peptide No. 1 or No. 2 or water for injection (control) was orally administered as a single dose to male Wistar rats at the age of four weeks by using a gastric tube (n=6 in each group). The dosage of the synthetic peptide No. 1 or No. 2 was 10 mg/kg. The blood was collected from the tail before administration and 30, 45, 60 and 90 minutes after administration, and the serum was separated. At 120 minutes after administration, the whole blood was collected from the abdominal vena cava under anesthesia and the rats were euthanized (see FIG. 25). The concentration of IGF-1 in the serum was measured by ELISA (Mouse/Rat IGF-I Quantikine ELISA Kit (MG100), R&D Systems, Inc.).
The concentration dependence of the synthetic peptides was examined. The synthetic peptide No. 1 was orally administered as a single dose of 1, 5 or 10 mg/kg (n=6 in each group). At 60 minutes after administration, the rats were euthanized under anesthesia, and the liver was harvested. The concentration of IGF-1 in the serum and liver was measured. For the serum IGF-1 concentration, the difference (Δ value) before and after administration was also determined.
The synthetic peptide No. 2 was orally administered to the rats as a single dose of 0.1, 1 or 10 mg/kg (n=6 in each group). At 45 minutes after administration, the rats were euthanized under anesthesia, and the liver was harvested. The concentration of IGF-1 in the serum and liver was measured. For the serum IGF-1 concentration, the difference (Δ value) before and after administration was also determined.

The test system of series [5] is male Crlj:WI rats. The experiment in a line: Osteogenesis-promoting effect on growth plate and secondary cancellous bone, 21 days (Example 5). It counts as in vivo. The conditions noted are these: peptide 100 mg/kg/day oral, hGH 500 μg/kg/day subcutaneous, versus control group, FIG. 14. Here is the method:
The synthetic peptide No. 1 or water for injection (control) was administered to male Crlj:WI rats at the age of four weeks by oral gavage using a gastric tube once a day for 21 days. The dosage of the synthetic peptide was 100 mg/kg/day. As a positive control, human growth hormone (hGH) was subcutaneously administered at 500 μg/kg/day once a day for 21 days. As fluorescent labels for the bone formation site, tetracycline (20 mg/kg) was subcutaneously administered on day 18 after the administration of the peptide or controls, and then calcein (10 mg/kg) was subcutaneously administered on day 20 after the administration of the peptide or controls. After the administration of the sample on day 21, the rats were kept under fasting conditions. […] Undecalcified specimens of the proximal tibia were prepared and photographed under a fluorescent microscope (BX-53, Olympus Corporation), and the bone morphology was measured using a morphometry system (Histometry RT digitizer, System Supply Co., Ltd.) and an analysis software (CSS-840 cancellous bone morphometry version, System Supply Co., Ltd.). The longitudinal growth rate (Lo.G.R.) of the epiphyseal plate per day was determined by measuring the distance between the tetracycline and calcein labels and dividing the distance by the time interval between the administrations of the two fluorescent labels (two days).

Series [6] can be described thus: Effect on body weight (Example 7). It counts as in vivo. The following applies: rats, days 1, 3, 5 and 7; peptide 1, 10 or 100 mg/kg/day oral, hGH 500 μg/kg/day subcutaneous; FIG. 24. Here is the method: The synthetic peptide No. 1 or water for injection (control) was administered to male Crlj:WI rats at the age of four weeks by oral gavage using a gastric tube once a day for seven days (n=10 in each group). The dosage of the synthetic peptide was 1, 10 or 100 mg/kg/day. As a positive control, human growth hormone (hGH) (Norditropin, Japan Standard Commodity Classification Number: 872412) was subcutaneously administered at 500 μg/kg/day once a day for seven days. The body weight was measured on days 1, 3, 5 and 7 of administration.

Series [7] has as its system male Crlj:WI rats. The experiment in a line: Calcification rate and morphometry in secondary cancellous bone, seven days (Example 6). The conditions noted are these: peptide 1, 10 or 100 mg/kg/day oral, hGH 500 μg/kg/day subcutaneous, versus control group, FIG. 18. It counts as in vivo. Here is the method:
(§1) The synthetic peptide No. 1 or water for injection (control) was administered to male Crlj:WI rats at the age of four weeks by oral gavage using a gastric tube once a day for seven days (n=10 in each group). The dosage of the synthetic peptide was 1, 10 or 100 mg/kg/day. As a positive control, human growth hormone (hGH) (Norditropin, Japan Standard Commodity Classification Number: 872412) was subcutaneously administered at 500 μg/kg/day once a day for seven days. As fluorescent labels for the bone formation site, tetracycline (20 mg/kg) was subcutaneously administered on day 4 after the administration of the peptide or controls, and then calcein (10 mg/kg) was subcutaneously administered on day 6 after the administration of the peptide or controls. After the administration of the sample on day 7, the rats were kept under fasting conditions. […] Undecalcified specimens of the proximal tibia were prepared and photographed under a fluorescent microscope (BX-53, Olympus Corporation), and the bone morphology was measured using a morphometry system (Histometry RT digitizer, System Supply Co., Ltd.). The daily calcification rate (mineral apposition rate) was determined by measuring the distance between the tetracycline and calcein labels in the secondary cancellous bones and dividing the distance by the time interval between the administrations of the two fluorescent labels (two days).

The subject of series [8] is male Crlj:WI rats. The series can be described thus: Bone growth-promoting effect on rats in the growth phase, seven days (Example 3). The conditions noted are these: hGH 500 μg/kg/day subcutaneous, versus control group. It counts as in vivo. Here is the method:
as §1, with “longitudinal growth” for “daily calcification”, “(Lo.G.R.) of the growth plate per day” for “(mineral apposition rate)”, “labels” for “labels in the secondary cancellous bones”

As for “Val-Asn-Pro-Glu (VNPE) [synthetic peptide No. 2]”, the “concentration of IGF-1 in the serum” value was “significantly higher” in series [1] (FIG. 32) and “significantly higher” in series [4] (single oral dose 0.1, 1 or 10 mg/kg, 45 minutes after administration, versus control group, FIG. 30). Besides, the “concentration of IGF-1 in the liver” value is listed as “significantly higher” in series [1] (FIG. 33) and “significantly higher” in series [4] (single oral dose 0.1, 1 or 10 mg/kg, 45 minutes after administration, versus control group, FIG. 31). Also, the “proliferation-promoting activity on osteoblastic precursor cells” value in series [2] (MC3T3-E1, 24 hours, BrdU uptake, relative to absence of sample = 100, FIGS. 3 and 4) is “promoted the proliferation”. Moreover, in series [2] (MC3T3-E1, BrdU uptake), the “concentration at which the proliferation-promoting effect is exhibited” value is listed as “sufficiently exhibited its effect at a low concentration”. For the same substance, in series [2] (MC3T3-E1, BrdU uptake, No. 2 versus No. 1), the “proliferation-promoting activity on osteoblastic precursor cells, comparison between the peptides” value is recorded as “higher activity than the synthetic peptide No. 1”. Besides, the “proliferation-promoting activity on chondrogenic cells” value in series [3] was “promoted the proliferation”. For the same substance, in series [4] (single oral dose 10 mg/kg, at 45 and 60 minutes after administration, versus control, FIG. 27), the “concentration of IGF-1 in the serum (time course)” value is “significantly higher”. In addition, the “dose dependence of IGF-1 concentration in the serum and liver” value in series [4] (single oral dose 0.1, 1 or 10 mg/kg, 45 minutes) is reported as “increased in a dose-dependent manner”.
For “hGH: human growth hormone (hGH) (Norditropin), positive control, subcutaneously administered”, the “longitudinal growth rate (Lo.G.R.) of the epiphyseal plate per day” value in the series on male Crlj:WI rats [5] was “significant promotion of bone growth”. In addition, the “change in the body weight” value in series [6] is “No significant change”. Further, the “calcification rate (mineral apposition rate) in the secondary cancellous bone” value in the series on male Crlj:WI rats [7] is given as “significant increase”. The “area of the hypertrophic cartilage layer” value with male Crlj:WI rats [8] (peptide 10 mg/kg/day oral, FIG. 9) is on record as “significantly larger”. In the series on male Crlj:WI rats [8] (peptide 1, 10 or 100 mg/kg/day oral, FIG. 8), the “longitudinal growth rate (Lo.G.R.) of the growth plate per day” value is given as “significant promotion of bone growth”.
